The values below come from publication PMC11489721 (Communications Chemistry, 2024).

In general, pKd refers to the negative decadic logarithm of the Kd, by convention in mol/L. As a reminder, the pEC50 is the negative decadic logarithm of the EC50, by convention in mol/L. Usually pKi stands for −log10 of the Ki, conventionally taken in molar units. Low values mean a high Ki, high ones a low Ki. For orientation: Ki means the dissociation constant of the complex between target and ligand, obtained from inhibition or displacement. A low value points to higher affinity.

The target in assay [1] is human T1R2. The note with it: human T1R2, intrinsic fluorescence; cited from earlier work.
Assay [2] deals with human T1R2/T1R3 sweet taste receptor. To be noted: HEK293 stably expressing T1R2/T1R3, FLIPR calcium mobilization; cited from earlier work. A general note: A change in cytosolic calcium serves as a functional read-out for many receptors and channels.
Assay [3] relates to human T1R2/T1R3 heterodimers. To be noted: transiently transfected, fluorescent calcium biosensor; cited from earlier work.
Assay [4] addresses extracellular amino-terminal domain (ATD) of human T1R2. To be noted: circular dichroism; cited from earlier work. For orientation: Circular dichroism is the unequal absorption of left and right circularly polarised light.
The target of assay [5] is T1, heterodimeric receptor (T1R2/T1R3), TMD3 binding site (Homo sapiens, UniProt Q7RTX0+Q8TE23).
T1 sequence (Q8TE23 20-839): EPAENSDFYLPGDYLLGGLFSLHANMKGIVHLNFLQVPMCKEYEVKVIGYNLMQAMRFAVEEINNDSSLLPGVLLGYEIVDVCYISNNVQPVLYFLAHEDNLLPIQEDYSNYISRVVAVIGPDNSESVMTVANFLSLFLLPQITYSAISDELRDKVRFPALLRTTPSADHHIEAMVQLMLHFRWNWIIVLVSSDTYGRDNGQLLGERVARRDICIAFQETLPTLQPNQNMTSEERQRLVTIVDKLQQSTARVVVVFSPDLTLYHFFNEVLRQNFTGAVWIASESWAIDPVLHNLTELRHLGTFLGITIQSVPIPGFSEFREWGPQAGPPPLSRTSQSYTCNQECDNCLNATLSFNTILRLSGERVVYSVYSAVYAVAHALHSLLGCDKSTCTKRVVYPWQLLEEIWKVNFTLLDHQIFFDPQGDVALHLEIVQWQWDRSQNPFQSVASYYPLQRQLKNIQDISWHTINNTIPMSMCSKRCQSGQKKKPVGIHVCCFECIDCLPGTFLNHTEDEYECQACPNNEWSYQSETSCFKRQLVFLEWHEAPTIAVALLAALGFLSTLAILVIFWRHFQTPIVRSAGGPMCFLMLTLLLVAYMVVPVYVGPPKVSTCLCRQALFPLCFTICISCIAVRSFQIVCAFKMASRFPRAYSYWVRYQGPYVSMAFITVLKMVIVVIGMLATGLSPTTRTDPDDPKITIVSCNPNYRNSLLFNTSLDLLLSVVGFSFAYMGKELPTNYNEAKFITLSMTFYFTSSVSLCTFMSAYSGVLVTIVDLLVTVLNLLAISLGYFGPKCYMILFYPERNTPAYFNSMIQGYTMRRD
T1 sequence (Q7RTX0 21-852): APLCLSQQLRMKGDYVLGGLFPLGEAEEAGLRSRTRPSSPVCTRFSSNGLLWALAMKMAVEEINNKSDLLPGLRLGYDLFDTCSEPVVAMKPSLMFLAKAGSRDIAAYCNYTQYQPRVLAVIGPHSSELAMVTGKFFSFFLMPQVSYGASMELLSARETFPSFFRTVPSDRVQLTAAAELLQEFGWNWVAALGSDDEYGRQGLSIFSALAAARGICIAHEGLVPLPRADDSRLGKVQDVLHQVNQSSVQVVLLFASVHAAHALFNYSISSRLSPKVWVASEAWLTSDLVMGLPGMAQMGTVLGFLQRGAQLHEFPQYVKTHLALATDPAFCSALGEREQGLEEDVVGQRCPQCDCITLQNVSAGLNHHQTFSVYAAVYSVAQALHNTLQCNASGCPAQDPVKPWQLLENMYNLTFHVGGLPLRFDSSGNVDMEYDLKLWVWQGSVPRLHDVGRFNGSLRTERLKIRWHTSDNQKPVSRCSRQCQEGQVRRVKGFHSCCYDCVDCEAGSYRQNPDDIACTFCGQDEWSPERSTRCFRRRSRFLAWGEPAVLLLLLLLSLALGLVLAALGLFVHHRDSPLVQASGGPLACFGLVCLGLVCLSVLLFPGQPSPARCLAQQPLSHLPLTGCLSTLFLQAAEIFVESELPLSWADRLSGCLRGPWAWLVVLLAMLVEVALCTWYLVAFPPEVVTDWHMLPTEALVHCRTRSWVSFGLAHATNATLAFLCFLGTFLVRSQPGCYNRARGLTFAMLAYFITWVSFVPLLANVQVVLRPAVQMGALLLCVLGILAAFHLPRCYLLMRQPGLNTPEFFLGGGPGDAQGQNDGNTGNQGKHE
Put plainly: Competition binding with [3H]-lactisole as radioligand. The note with it: for Competitive inhibition with lactisole: radioligand [3H]-lactisole.

The target in assay [6] is T2, heterodimeric receptor (T1R2/T1R3), TMD2 binding site (Homo sapiens, UniProt Q7RTX0+Q8TE23).
T2 sequence (Q8TE23 20-839): T1 sequence (Q8TE23 20-839)
T2 sequence (Q7RTX0 21-852): T1 sequence (Q7RTX0 21-852)
The assay is described as follows: Competition binding with [3H]-Perillartine as radioligand. To be noted: radioligand [3H]-Perillartine.

Assay [7] addresses T3, heterodimeric receptor (T1R2/T1R3), presumed VFD2 binding site (Homo sapiens, UniProt Q7RTX0+Q8TE23).
T3 sequence (Q8TE23 20-839): T1 sequence (Q8TE23 20-839)
T3 sequence (Q7RTX0 21-852): T1 sequence (Q7RTX0 21-852)
Put plainly: Competition binding with [3H]-Rebaudioside B as radioligand. To be noted: for Competitive inhibition with RebB: radioligand [3H]-Rebaudioside B.

Assay [8] addresses T4, heterodimeric receptor (T1R2/T1R3) (Homo sapiens, UniProt Q7RTX0+Q8TE23).
T4 sequence (Q8TE23 20-839): T1 sequence (Q8TE23 20-839)
T4 sequence (Q7RTX0 21-852): T1 sequence (Q7RTX0 21-852)
Put plainly: Competition binding with [14C]-sucrose as radioligand.

Molecules are shown by their SMILES. pEC50, pKd, pKi: −log10 of the molar value.

For the compound `CC1=CC(=O)NS(=O)(=O)O1` [AceK, Acesulfame K], the pKd in assay [1] is 3.79; in assay [4], 4.00. Further, the pEC50 was 3.90 in assay [2] and 3.67 in assay [3]. The “Competitive inhibition with lactisole” value in assay [5] is reported as “do not compete”. In addition, in assay [6], the “Competitive inhibition with perillartine” value was “high levels of inhibition”. Also, in assay [7], the “Competitive inhibition with RebB” value was “inhibited”.
With `COc1ccc(CCC(=O)c2c(O)cc(O[C@@H]3O[C@H](CO)[C@@H](O)[C@H](O)[C@H]3O[C@@H]3O[C@@H](C)[C@H](O)[C@@H](O)[C@H]3O)cc2O)cc1O` [NHDC, Neohesperidin Dihydrochalcone], the pKi in assay [8] is 1.87; in assay [5] (Ki, radiolabeled ligand lactisole) it was 3.48; in assay [7], 1.20. Further, in assay [2], the pEC50 was 4.99. Besides, in assay [5] (Ki (mM), radiolabeled ligand lactisole, TMD3 binding, Table 4), the Ki was found to be 0.33 mM. For the same compound, the “Competitive inhibition with lactisole” value in assay [5] was “inhibition”. The “Competitive inhibition with perillartine” value in assay [6] is reported as “high levels of inhibition”. The “Competitive inhibition with RebB” value in assay [7] is “positive inhibition”.
